In article PMC4823954, “From fighting depression to conquering tumors: a novel tricyclic thiazepine compound as a tubulin polymerization inhibitor” (Cell Death & Disease, 2016):

Assays:
Test in all cases: KINOMEscan
Format in all cases: binding
Settings in all cases: read-out: % Ctrl
[1] = target: T1, MAP3K4 (Homo sapiens, UniProt Q9Y6R4)
T1 construct: purchased DiscoveRx KINOMEscan
Procedure, shortened: (§1)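 Competition binding panel of 442 non-mutant kinases: test compound at 5 and 10 μM competed with an active-site-directed ligand for 1 h with shaking. Bound kinase was eluted with 0.5 μM ligand and quantified by qPCR; %Ctrl = (compound − positive control)/(DMSO − positive control) × 100, lower meaning tighter binding.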

[2] = target: T2, ERK5 (Homo sapiens, UniProt Q13164)
T2 construct: purchased DiscoveRx KINOMEscan
Procedure, shortened: as §1

[3] = target: T3, PIK3CA(H1047L) (Homo sapiens, UniProt P42336, H1047L)
T3 construct: purchased DiscoveRx KINOMEscan

[4] = target: T4, MEK5 (Homo sapiens, UniProt Q13163)
T4 construct: purchased DiscoveRx KINOMEscan
Procedure, shortened: as §1

[5] = target: T5, FLT4 (Homo sapiens, UniProt P35916)
T5 construct: purchased DiscoveRx KINOMEscan
Procedure, shortened: as §1

[6] = target: T6, EPHB3 (Homo sapiens, UniProt P54753)
T6 construct: purchased DiscoveRx KINOMEscan
Procedure, shortened: as §1

[7] = target: T7, RSK4(Kin.Dom.1-N-terminal) (Homo sapiens, UniProt Q9UK32)
T7 construct: RSK4(Kin.Dom.1-N-terminal); purchased DiscoveRx KINOMEscan
Procedure, shortened: as §1

[8] = target: T8, STK36 (Homo sapiens, UniProt Q9NRP7)
T8 construct: purchased DiscoveRx KINOMEscan
Procedure, shortened: as §1

[9] = target: T9, LRRK2 (Homo sapiens, UniProt Q5S007)
T9 construct: purchased DiscoveRx KINOMEscan
Procedure, shortened: as §1

[10] = target: RPS6KA4(Kin.Dom.2-C-terminal) (Homo sapiens, UniProt O75676)
Procedure, shortened: as §1

[11] = target: T10, NDR2 (Homo sapiens, UniProt Q9Y2H1)
T10 construct: purchased DiscoveRx KINOMEscan
Procedure, shortened: as §1

[12] = target: T11, PFTAIRE2 (Homo sapiens, UniProt Q96Q40)
T11 construct: purchased DiscoveRx KINOMEscan
Procedure, shortened: as §1

[13] = target: T12, TYK2(JH2domain-pseudokinase) (Homo sapiens, UniProt P29597)
T12 construct: TYK2(JH2domain-pseudokinase); purchased DiscoveRx KINOMEscan
Procedure, shortened: as §1

[14] = target: T13, RIPK2 (Homo sapiens, UniProt O43353)
T13 construct: purchased DiscoveRx KINOMEscan
Procedure, shortened: as §1

[15] = target: T14, BRSK2 (Homo sapiens, UniProt Q8IWQ3)
T14 construct: purchased DiscoveRx KINOMEscan
Procedure, shortened: as §1

[16] = target: T15, CIT (Homo sapiens, UniProt O14578)
T15 construct: purchased DiscoveRx KINOMEscan
Procedure, shortened: as §1

[17] = target: T16, ICK (Homo sapiens, UniProt Q9UPZ9)
T16 construct: purchased DiscoveRx KINOMEscan
Procedure, shortened: as §1

[18] = target: T17, PIK3CD (Homo sapiens, UniProt O00329)
T17 construct: purchased DiscoveRx KINOMEscan
Procedure, shortened: as §1

[19] = target: T18, MEK2 (Homo sapiens, UniProt P36507)
T18 construct: purchased DiscoveRx KINOMEscan
Procedure, shortened: as §1

[20] = target: T19, EPHA7 (Homo sapiens, UniProt Q15375)
T19 construct: purchased DiscoveRx KINOMEscan
Procedure, shortened: as §1

[21] = target: T20, NIM1 (Homo sapiens, UniProt Q8IY84)
T20 construct: purchased DiscoveRx KINOMEscan
Procedure, shortened: as §1

[22] = target: T21, TTK (Homo sapiens, UniProt P33981)
T21 construct: purchased DiscoveRx KINOMEscan
Procedure, shortened: as §1

[23] = target: T22, GCN2(Kin.Dom.2,S808G) (Homo sapiens, UniProt Q9P2K8, S808G)
T22 construct: GCN2(Kin.Dom.2,S808G); purchased DiscoveRx KINOMEscan

[24] = target: T23, ACVR1 (Homo sapiens, UniProt Q04771)
T23 construct: purchased DiscoveRx KINOMEscan
Procedure, shortened: as §1

[25] = target: T24, RSK2(Kin.Dom.1-N-terminal) (Homo sapiens, UniProt P51812)
T24 construct: RSK2(Kin.Dom.1-N-terminal); purchased DiscoveRx KINOMEscan
Procedure, shortened: as §1

[26] = target: T25, JAK1(JH2domain-pseudokinase) (Homo sapiens, UniProt P23458)
T25 construct: JAK1(JH2domain-pseudokinase); purchased DiscoveRx KINOMEscan
Procedure, shortened: as §1

[27] = target: T26, MST1 (Homo sapiens, UniProt Q13043)
T26 construct: purchased DiscoveRx KINOMEscan
Procedure, shortened: as §1

[28] = target: T27, CSNK2A1 (Homo sapiens, UniProt P68400)
T27 construct: purchased DiscoveRx KINOMEscan
Procedure, shortened: as §1

T19 sequence (Q15375 28-998): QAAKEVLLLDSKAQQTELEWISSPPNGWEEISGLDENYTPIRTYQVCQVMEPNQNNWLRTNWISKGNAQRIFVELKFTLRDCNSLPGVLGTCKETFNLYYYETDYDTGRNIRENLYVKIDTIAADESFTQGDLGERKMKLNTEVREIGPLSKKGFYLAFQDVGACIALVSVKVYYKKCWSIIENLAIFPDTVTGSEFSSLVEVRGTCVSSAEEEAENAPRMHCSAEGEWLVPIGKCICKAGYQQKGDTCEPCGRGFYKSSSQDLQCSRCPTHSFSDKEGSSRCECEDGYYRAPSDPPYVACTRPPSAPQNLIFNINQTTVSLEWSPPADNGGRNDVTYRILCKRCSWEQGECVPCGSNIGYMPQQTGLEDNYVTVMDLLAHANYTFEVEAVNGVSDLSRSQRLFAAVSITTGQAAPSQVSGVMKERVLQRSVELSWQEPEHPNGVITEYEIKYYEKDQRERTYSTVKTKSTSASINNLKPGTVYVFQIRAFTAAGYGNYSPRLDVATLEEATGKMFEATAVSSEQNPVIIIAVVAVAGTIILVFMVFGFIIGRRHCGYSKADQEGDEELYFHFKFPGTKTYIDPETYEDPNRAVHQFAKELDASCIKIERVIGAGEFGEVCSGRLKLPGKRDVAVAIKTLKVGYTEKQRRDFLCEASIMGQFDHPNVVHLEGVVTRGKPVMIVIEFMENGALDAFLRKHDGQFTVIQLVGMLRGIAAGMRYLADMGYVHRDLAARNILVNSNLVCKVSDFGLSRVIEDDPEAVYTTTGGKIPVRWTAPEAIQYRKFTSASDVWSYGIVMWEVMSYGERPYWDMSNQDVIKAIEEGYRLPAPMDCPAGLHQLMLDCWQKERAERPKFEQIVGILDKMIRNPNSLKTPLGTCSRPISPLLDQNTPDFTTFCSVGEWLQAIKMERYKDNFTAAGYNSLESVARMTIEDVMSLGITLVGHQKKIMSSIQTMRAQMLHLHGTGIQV
T4 sequence (Q13163 whole entry): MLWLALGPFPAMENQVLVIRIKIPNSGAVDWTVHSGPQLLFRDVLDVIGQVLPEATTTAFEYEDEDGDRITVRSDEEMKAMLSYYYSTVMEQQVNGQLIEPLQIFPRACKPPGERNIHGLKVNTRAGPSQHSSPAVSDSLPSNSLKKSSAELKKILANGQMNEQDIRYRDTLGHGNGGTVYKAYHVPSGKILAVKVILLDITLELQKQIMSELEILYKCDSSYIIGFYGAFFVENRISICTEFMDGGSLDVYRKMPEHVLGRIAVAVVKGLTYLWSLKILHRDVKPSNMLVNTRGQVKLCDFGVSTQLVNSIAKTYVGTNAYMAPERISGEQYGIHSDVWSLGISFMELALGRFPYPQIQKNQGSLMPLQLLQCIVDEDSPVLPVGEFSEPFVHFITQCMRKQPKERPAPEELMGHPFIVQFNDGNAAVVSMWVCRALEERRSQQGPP
T9 sequence (Q5S007 whole entry): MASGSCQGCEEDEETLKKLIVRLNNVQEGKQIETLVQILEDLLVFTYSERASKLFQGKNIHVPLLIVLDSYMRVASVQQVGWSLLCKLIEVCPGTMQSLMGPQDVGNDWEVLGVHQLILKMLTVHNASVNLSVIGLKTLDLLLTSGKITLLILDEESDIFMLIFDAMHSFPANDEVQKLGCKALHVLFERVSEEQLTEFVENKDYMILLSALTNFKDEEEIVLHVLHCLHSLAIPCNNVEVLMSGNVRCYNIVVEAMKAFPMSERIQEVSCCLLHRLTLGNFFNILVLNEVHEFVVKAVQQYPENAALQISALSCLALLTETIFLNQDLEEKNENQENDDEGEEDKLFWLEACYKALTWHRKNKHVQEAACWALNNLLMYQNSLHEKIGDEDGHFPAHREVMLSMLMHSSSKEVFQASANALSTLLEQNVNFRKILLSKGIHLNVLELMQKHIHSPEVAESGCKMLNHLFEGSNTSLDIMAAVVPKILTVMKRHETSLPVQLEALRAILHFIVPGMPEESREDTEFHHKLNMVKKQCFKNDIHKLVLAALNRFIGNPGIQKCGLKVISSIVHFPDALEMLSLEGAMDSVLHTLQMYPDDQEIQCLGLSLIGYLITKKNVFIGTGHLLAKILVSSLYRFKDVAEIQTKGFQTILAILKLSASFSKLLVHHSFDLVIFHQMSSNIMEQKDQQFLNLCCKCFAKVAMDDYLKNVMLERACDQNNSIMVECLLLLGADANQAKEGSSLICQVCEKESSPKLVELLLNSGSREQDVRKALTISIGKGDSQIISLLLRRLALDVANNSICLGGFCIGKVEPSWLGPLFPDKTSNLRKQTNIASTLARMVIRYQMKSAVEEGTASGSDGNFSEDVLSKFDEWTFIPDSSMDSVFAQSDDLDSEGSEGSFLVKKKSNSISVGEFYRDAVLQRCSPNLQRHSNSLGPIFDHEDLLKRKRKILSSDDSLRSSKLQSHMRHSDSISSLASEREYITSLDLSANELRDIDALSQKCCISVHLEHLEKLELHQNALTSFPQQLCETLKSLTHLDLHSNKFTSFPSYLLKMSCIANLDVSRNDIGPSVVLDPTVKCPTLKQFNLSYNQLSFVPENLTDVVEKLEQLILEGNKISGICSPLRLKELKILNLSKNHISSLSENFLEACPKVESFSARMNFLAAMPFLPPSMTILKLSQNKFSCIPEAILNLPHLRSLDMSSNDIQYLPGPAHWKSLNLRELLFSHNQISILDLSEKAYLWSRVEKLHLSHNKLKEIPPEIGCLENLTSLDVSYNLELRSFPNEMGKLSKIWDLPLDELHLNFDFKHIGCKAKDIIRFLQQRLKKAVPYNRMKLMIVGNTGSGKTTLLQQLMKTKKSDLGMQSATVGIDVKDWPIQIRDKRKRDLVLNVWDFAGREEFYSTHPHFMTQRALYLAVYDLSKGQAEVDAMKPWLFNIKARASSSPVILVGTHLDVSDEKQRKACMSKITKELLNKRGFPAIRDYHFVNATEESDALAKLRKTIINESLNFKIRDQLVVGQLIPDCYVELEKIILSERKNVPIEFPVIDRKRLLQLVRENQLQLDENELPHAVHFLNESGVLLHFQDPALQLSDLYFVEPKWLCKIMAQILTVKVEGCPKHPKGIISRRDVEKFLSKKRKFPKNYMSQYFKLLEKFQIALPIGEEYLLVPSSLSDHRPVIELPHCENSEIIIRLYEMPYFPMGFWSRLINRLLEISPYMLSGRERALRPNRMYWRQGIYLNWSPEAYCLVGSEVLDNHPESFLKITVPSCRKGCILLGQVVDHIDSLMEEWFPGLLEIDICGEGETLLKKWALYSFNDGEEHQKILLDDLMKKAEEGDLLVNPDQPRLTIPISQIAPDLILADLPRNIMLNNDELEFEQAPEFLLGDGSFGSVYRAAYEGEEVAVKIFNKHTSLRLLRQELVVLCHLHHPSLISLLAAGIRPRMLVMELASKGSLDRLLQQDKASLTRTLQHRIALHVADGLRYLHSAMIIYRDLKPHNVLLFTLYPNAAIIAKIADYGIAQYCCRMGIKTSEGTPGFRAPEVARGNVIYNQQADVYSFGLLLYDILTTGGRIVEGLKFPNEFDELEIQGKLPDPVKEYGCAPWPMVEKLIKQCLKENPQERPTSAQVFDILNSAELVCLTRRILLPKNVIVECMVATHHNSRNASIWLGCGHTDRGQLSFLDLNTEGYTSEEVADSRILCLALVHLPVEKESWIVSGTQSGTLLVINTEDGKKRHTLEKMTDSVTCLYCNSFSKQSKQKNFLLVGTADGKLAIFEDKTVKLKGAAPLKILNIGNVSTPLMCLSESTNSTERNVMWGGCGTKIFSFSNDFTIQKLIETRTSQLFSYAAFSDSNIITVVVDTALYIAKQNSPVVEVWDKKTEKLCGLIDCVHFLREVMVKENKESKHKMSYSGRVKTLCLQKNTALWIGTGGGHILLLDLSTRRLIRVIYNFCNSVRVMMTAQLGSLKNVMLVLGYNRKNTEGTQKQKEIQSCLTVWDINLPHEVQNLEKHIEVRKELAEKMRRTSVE
T21 sequence (P33981 whole entry): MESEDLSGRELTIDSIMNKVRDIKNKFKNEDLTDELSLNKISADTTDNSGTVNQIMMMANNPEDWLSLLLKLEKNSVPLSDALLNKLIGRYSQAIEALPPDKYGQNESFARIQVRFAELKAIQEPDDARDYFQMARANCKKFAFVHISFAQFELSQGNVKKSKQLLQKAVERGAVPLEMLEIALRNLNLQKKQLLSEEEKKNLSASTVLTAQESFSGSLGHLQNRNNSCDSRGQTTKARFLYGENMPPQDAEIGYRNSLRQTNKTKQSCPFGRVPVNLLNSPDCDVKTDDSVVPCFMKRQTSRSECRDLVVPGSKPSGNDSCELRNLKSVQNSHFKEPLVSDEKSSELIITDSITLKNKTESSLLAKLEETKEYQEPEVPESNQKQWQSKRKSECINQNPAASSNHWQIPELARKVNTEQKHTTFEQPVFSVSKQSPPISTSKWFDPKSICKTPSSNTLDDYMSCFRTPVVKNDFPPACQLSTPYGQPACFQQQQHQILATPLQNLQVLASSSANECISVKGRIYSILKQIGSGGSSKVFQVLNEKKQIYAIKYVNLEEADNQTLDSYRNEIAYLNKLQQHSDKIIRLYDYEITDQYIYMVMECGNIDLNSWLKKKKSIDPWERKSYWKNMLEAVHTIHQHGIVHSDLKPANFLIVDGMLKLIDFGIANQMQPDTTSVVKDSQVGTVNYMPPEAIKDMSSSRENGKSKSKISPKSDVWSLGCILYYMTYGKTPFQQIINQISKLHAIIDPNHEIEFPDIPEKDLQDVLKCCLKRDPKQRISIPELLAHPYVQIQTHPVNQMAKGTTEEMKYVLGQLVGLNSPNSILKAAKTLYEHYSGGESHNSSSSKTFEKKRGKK
T25 sequence (P23458 561-860 limits assumed): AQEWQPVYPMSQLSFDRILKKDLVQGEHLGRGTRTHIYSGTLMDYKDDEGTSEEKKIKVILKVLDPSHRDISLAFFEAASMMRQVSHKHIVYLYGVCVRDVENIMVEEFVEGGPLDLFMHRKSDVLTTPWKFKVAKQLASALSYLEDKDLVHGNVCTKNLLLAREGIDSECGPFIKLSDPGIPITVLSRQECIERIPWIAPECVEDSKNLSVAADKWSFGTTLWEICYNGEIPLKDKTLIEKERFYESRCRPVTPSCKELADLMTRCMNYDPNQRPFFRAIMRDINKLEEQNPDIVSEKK

For `Cc1ccc(C2=Nc3cccnc3S(=O)(=O)c3ccccc32)cc1` [TBPT, 6-(p-tolyl)benzo[f] pyrido[2,3-b][1,4] thiazepine 11,11-dioxide], the remaining binding at 5 µM ([1]; 5 μM) was 99%, the remaining binding at 10 µM ([1]; 10 μM) was 96% and the remaining binding at 5 µM ([2]; 5 μM) was 100%. It also gave a remaining binding at 10 µM ([2]; 10 μM) of 96%, a remaining binding at 5 µM ([3]; 5 μM) of 100% and a remaining binding at 10 µM ([3]; 10 μM) of 100%. The remaining binding at 5 µM ([4]; 5 μM) was 100%, the remaining binding at 10 µM ([4]; 10 μM) was 95% and the remaining binding at 5 µM ([5]; 5 μM) was 100%. The remaining binding at 10 µM ([5]; 10 μM) was 100%, the remaining binding at 5 µM ([6]; 5 μM) was 96% and the remaining binding at 10 µM ([6]; 10 μM) was 100%. The remaining binding at 5 µM ([7]; 5 μM) was 83%, the remaining binding at 10 µM ([7]; 10 μM) was 94% and the remaining binding at 5 µM ([8]; 5 μM) was 84%. The remaining binding at 10 µM ([8]; 10 μM) was 100%, the remaining binding at 5 µM ([9]; 5 μM) was 94% and the remaining binding at 10 µM ([9]; 10 μM) was 100%. The remaining binding at 5 µM ([10]; 5 μM) was 100%, the remaining binding at 10 µM ([10]; 10 μM) was 90% and the remaining binding at 5 µM ([11]; 5 μM) was 100%. For the same molecule, the remaining binding at 10 µM ([11]; 10 μM) was 100%, the remaining binding at 5 µM ([12]; 5 μM) was 100% and the remaining binding at 10 µM ([12]; 10 μM) was 89%. The remaining binding at 5 µM ([13]; 5 μM) was 82%, the remaining binding at 10 µM ([13]; 10 μM) was 100% and the remaining binding at 5 µM ([14]; 5 μM) was 92%. It also gave a remaining binding at 10 µM ([14]; 10 μM) of 97%, a remaining binding at 5 µM ([15]; 5 μM) of 100% and a remaining binding at 10 µM ([15]; 10 μM) of 100%. For the same molecule, the remaining binding at 5 µM ([16]; 5 μM) was 98%, the remaining binding at 10 µM ([16]; 10 μM) was 97% and the remaining binding at 5 µM ([17]; 5 μM) was 100%. For the same molecule, the remaining binding at 10 µM ([17]; 10 μM) was 100%, the remaining binding at 5 µM ([18]; 5 μM) was 94% and the remaining binding at 10 µM ([18]; 10 μM) was 100%. It also gave a remaining binding at 5 µM ([19]; 5 μM) of 92%, a remaining binding at 10 µM ([19]; 10 μM) of 100% and a remaining binding at 5 µM ([20]; 5 μM) of 93%. The remaining binding at 10 µM ([20]; 10 μM) was 100%, the remaining binding at 5 µM ([21]; 5 μM) was 90% and the remaining binding at 10 µM ([21]; 10 μM) was 78%. For the same molecule, the remaining binding at 5 µM ([22]; 5 μM) was 100%, the remaining binding at 10 µM ([22]; 10 μM) was 100% and the remaining binding at 5 µM ([23]; 5 μM) was 100%. For the same molecule, the remaining binding at 10 µM ([23]; 10 μM) was 100%, the remaining binding at 5 µM ([24]; 5 μM) was 100% and the remaining binding at 10 µM ([24]; 10 μM) was 100%. The remaining binding at 5 µM ([25]; 5 μM) was 98%, the remaining binding at 10 µM ([25]; 10 μM) was 100% and the remaining binding at 5 µM ([26]; 5 μM) was 100%. The remaining binding at 10 µM ([26]; 10 μM) was 100%, the remaining binding at 5 µM ([27]; 5 μM) was 93% and the remaining binding at 10 µM ([27]; 10 μM) was 100%. For the same molecule, the remaining binding at 5 µM ([28]; 5 μM) was 100% and the remaining binding at 10 µM ([28]; 10 μM) was 84%.
